According to ChEMBL document CHEMBL1154987, “C-Aryl glycoside inhibitors of SGLT2: Exploration of sugar modifications including C-5 spirocyclization” (Bioorg Med Chem Lett, 2010):

Assays:
[1] = target: T1, Sodium/glucose cotransporter 2 (Homo sapiens, UniProt P31639); assay: Inhibition of human SGLT2 expressed in CHO cells assessed as inhibition of sodium-dependent methyl-alpha-D-[U-14C]glucopyranoside uptake after 2 hrs; format: cell-based
T1 sequence (P31639 whole entry): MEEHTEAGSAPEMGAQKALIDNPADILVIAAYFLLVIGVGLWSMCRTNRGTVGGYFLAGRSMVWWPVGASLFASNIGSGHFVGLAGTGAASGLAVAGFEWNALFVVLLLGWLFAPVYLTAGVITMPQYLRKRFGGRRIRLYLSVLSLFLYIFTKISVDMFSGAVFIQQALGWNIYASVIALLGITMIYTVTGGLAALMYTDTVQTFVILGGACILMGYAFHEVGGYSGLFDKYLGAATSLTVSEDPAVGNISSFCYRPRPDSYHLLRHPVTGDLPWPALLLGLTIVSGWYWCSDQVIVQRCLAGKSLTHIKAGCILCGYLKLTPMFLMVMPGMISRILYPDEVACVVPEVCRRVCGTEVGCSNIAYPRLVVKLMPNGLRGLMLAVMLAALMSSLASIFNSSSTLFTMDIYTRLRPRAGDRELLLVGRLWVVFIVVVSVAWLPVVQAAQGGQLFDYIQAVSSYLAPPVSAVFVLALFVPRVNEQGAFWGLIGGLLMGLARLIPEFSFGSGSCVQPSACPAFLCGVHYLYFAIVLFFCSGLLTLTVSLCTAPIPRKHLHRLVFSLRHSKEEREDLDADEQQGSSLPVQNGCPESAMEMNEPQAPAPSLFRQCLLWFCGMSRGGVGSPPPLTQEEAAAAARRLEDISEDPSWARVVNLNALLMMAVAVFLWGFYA

[2] = target: T2, Sodium/glucose cotransporter 1 (Homo sapiens, UniProt P13866); assay: Inhibition of human SGLT1 expressed in CHO cells assessed as inhibition of sodium-dependent methyl-alpha-D-[U-14C]glucopyranoside uptake after 2 hrs; format: cell-based
T2 sequence (P13866 whole entry): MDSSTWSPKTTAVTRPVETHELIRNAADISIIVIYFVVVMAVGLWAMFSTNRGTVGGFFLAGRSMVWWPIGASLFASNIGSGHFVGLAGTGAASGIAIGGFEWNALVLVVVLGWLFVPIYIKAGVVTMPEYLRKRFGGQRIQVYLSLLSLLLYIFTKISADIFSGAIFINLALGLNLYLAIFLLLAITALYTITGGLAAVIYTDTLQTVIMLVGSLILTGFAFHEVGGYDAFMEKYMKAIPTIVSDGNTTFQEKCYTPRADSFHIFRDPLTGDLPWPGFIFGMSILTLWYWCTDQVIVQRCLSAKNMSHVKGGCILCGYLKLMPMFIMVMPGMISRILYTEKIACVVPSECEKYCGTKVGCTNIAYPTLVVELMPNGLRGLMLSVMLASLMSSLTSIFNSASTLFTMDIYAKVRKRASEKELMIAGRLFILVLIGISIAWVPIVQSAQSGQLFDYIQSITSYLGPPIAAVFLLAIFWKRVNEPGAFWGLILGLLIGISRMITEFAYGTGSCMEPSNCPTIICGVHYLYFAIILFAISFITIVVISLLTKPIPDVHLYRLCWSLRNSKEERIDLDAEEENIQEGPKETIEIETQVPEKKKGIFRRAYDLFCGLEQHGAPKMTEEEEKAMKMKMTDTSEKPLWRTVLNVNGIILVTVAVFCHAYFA

[3] = Clearance in Sprague-Dawley rat at 2 mg/kg, iv; format: ADME, organism-based; parameters: dose 2 mg/kg, route intravenous; details: in vivo
[4] = Volume of distribution at steady state in Sprague-Dawley rat at 2 mg/kg, iv; format: ADME, organism-based; parameters: dose 2 mg/kg, route intravenous; details: in vivo, read-out: Vdss
[5] = Half life in Sprague-Dawley rat at 2 mg/kg, iv; format: ADME, organism-based; parameters: dose 2 mg/kg, route intravenous; details: in vivo
[6] = Oral bioavailability in Sprague-Dawley rat at 5 mg/kg; format: ADME, organism-based; details: in vivo
Homo sapiens = species on record: Homo sapiens; assay: Selectivity ratio of IC50 for human SGLT2 over IC50 for human SGLT1
[7] = Clearance in Sprague-Dawley rat at 1 mg/kg, iv; format: ADME, organism-based; parameters: dose 1 mg/kg, route intravenous; details: in vivo
[8] = Volume of distribution at steady state in Sprague-Dawley rat at 1 mg/kg, iv; format: ADME, organism-based; parameters: dose 1 mg/kg, route intravenous; details: in vivo, read-out: Vdss
[9] = Half life in Sprague-Dawley rat at 1 mg/kg, iv; format: ADME, organism-based; parameters: dose 1 mg/kg, route intravenous; details: in vivo
Rattus norvegicus = assay: Antidiabetic activity in Sprague-Dawley rat assessed as maximum urinary glucose excretion at 60 mg/kg, po over 24 hrs measured per 200 g body weight; format: functional, Urine

SMILES	IC50 [1] [nM]	IC50 [2] [nM]	also measured
COc1ccc(Cc2cc([C@@H]3O[C@H](CO)[C@@H](OC)[C@H](O)[C@H]3O)ccc2Cl)cc1	180	–	–
COc1ccc(Cc2cc([C@@H]3O[C@H](CO)[C@@H](O)[C@H](O)[C@H]3O)ccc2Cl)cc1	1	240	–
COc1ccc(Cc2cc([C@@H]3O[C@H](CF)[C@@H](O)[C@H](O)[C@H]3O)ccc2Cl)cc1	5.1	–	–
CCc1ccc(Cc2cc([C@@H]3OC4(COC4)[C@@H](O)[C@H](O)[C@H]3O)ccc2C)cc1	3.4	1500	–
CCOc1ccc(Cc2cc([C@@H]3O[C@H](CO)[C@@H](O)[C@H](O)[C@H]3O)ccc2Cl)cc1 [DAPAGLIFLOZIN]	–	–	clearance [3]: 10 mL/min/kg; Vd [4]: 3.8 L/kg; half-life [5]: 264 min; bioavailability [6]: 100%
COc1ccc(Cc2cc([C@@H]3OC(CO)(CO)[C@@H](O)[C@H](O)[C@H]3O)ccc2Cl)cc1	59	6800	–
CCc1ccc(Cc2cc([C@@H]3OC4(CC4)[C@@H](O)[C@H](O)[C@H]3O)ccc2C)cc1	3	190	Ratio IC50 (Homo sapiens): 63; clearance [7]: 112 mL/min/kg; Vd [8]: 5.7 L/kg; half-life [9]: 35.4 min
CCc1ccc(Cc2cc([C@@H]3OC4(CNC4)[C@@H](O)[C@H](O)[C@H]3O)ccc2C)cc1	5100	> 10000	–
CCc1ccc(Cc2cc([C@@H]3O[C@H](CO)[C@@H](O)C[C@H]3O)ccc2C)cc1	2000	–	–
CCc1ccc(Cc2cc([C@@H]3O[C@H](CO)[C@@H](O)[C@H](O)[C@H]3O)ccc2C)cc1	1.5	–	–
COc1ccc(Cc2cc([C@@H]3OC4(COC4)[C@@H](O)[C@H](O)[C@H]3O)ccc2C)cc1	6.6	1540	clearance [3]: 22.3 mL/min/kg; Vd [4]: 2.3 L/kg; half-life [5]: 72 min; bioavailability [6]: 100%; Activity (Rattus norvegicus): 2000 mg
COc1ccc(Cc2cc([C@@H]3O[C@H](CO)C[C@H](O)[C@H]3O)ccc2Cl)cc1	21	–	–
COc1ccc(Cc2cc([C@@H]3O[C@H](CO)[C@@H](O)[C@H](O)[C@H]3OC)ccc2Cl)cc1	140	–	–
CCc1ccc(Cc2cc([C@H]3C[C@@H](O)[C@H](O)[C@@H](CO)O3)ccc2C)cc1	> 10000	–	–
CCc1ccc(Cc2cc([C@@H]3OC4(CS(=O)(=O)C4)[C@@H](O)[C@H](O)[C@H]3O)ccc2C)cc1	14	> 10000	–
COc1ccc(Cc2cc([C@@H]3OC4(COC4)[C@@H](O)[C@H](O)[C@H]3O)ccc2Cl)cc1	23	> 9600	–
CCOc1ccc(Cc2cc([C@@H]3OC4(COC4)[C@@H](O)[C@H](O)[C@H]3O)ccc2Cl)cc1	32	5600	–
COc1ccc(Cc2cc([C@@H]3OC4(CC4)[C@@H](O)[C@H](O)[C@H]3O)ccc2C)cc1	7.9	370	Ratio IC50 (Homo sapiens): 47; clearance [7]: 48.9 mL/min/kg; Vd [8]: 2.6 L/kg; half-life [9]: 36.6 min
COc1ccc(Cc2cc([C@@H]3O[C@H](C)[C@@H](O)[C@H](O)[C@H]3O)ccc2Cl)cc1	2.4	73	–
CCc1ccc(Cc2cc([C@@H]3O[C@]4(CCCO4)[C@@H](O)[C@H](O)[C@H]3O)ccc2C)cc1	53	1100	–
CCc1ccc(Cc2cc([C@@H]3O[C@H](CO)[C@@H](O)[C@@H](O)[C@H]3O)ccc2C)cc1	3700	–	–
CCc1ccc(Cc2cc([C@@H]3O[C@H](CO)[C@H](O)[C@H](O)[C@H]3O)ccc2C)cc1	139	–	–
